18 compounds from patent publication US20240050428A1 (Cullgen (Shanghai), Inc., priority 2020, published 2024) can be followed below.

Read-outs that look alike come from different tables or passages of the source.

The test system of one assay is MV4;11 cells. In words: Cell viability assay (CellTiter-Glo) in MV4;11 cells, alone or with gilteritinib. It is filed as cell-based. The following applies: Homo sapiens, MV4;11 cells, three days, CellTiter-Glo, read-out: MV4. On the technique in general: Cellular ATP, detected with luciferase, serves as a proxy for viable cell number.
The subject of a further assay is MOLM-13 cells. In words: Cell viability assay (CellTiter-Glo) in MOLM-13 cells, alone or with gilteritinib. The assay is classed as cell-based. The following applies: Homo sapiens, MOLM-13 cells, three days, CellTiter-Glo.
The mark [1] stands for this setting: MV4-11, 72 h, compound alone (without gilteritinib), 11 IC50.
[2] abbreviates: MV4-11, 72 h, compound with gilteritinib 10 nM, 11 IC50 gilteritinib.
[3] abbreviates: MOLM-13, 72 h, compound alone (without gilteritinib), read-out: MOLM-13 IC50.
Setting [4] is: MOLM-13, 72 h, compound with gilteritinib 20 nM, read-out: MOLM-13 IC50 gilteritinib.

As for `Cc1cccc(-c2cn([C@H]3C[C@H](CNc4ccc5c(c4)C(=O)N(C4CCC(=O)NC4=O)C5=O)C3)nc2C(F)F)n1` (stereo partly drawn) [GS-444, 5-(((trans-3-(3-(difluoromethyl)-4-(6-methylpyridin-2-yl)-1H-pyrazol-1-yl)cyclobutyl)methyl)amino)-2-(2,6-dioxopiperidin-3-yl)isoindoline-1,3-dione], the IC50 was 0.01 to 0.1 µM in the assay with MV4;11 cells (setting [1]), less than 0.01 µM in the assay with MV4;11 cells (setting [2]), 0.01 to 0.1 µM with MOLM-13 cells (setting [3]) and less than 0.01 µM with MOLM-13 cells (setting [4]).

Regarding `O=C1CCC(N2C(=O)c3ccc(NC[C@H]4C[C@H](n5cc(-c6cccc(N[C@H]7CC[C@@H](O)CC7)n6)c(C6CC6)n5)C4)cc3C2=O)C(=O)N1` (stereo partly drawn) [GS-445, 5-(((trans-3-(3-cyclopropyl-4-(6-((cis-4-hydroxycyclohexyl)amino)pyridin-2-yl)-1H-pyrazol-1-yl)cyclobutyl)methyl)amino)-2-(2,6-dioxopiperidin-3-yl)isoindoline-1,3-dione], the IC50 in the assay with MV4;11 cells (setting [1]), in the assay on MV4;11 cells (setting [2]), in the assay on MOLM-13 cells (setting [3]) and with MOLM-13 cells (setting [4]) was 0.1 to 1 µM throughout.

As for `Cc1ccc(-c2cnn([C@H]3C[C@H](CCCNc4ccc5c(c4)C(=O)N(C4CCC(=O)NC4=O)C5=O)C3)c2)nc1` (stereo partly drawn) [GS-446, 2-(2,6-dioxopiperidin-3-yl)-5-((3-(trans-3-(4-(5-methylpyridin-2-yl)-1H-pyrazol-1-yl)cyclobutyl)propyl)amino)isoindoline-1,3-dione], the IC50 was 0.1 to 1 µM with MV4;11 cells (setting [1]), 0.01 to 0.1 µM in the assay on MV4;11 cells (setting [2]), greater than 1 µM with MOLM-13 cells (setting [3]) and 0.01 to 0.1 µM with MOLM-13 cells (setting [4]).

As for `O=C1CCC(N2C(=O)c3ccc(NCCC[C@H]4C[C@H](n5cc(-c6cccc(C7CC7)n6)cn5)C4)cc3C2=O)C(=O)N1` (stereo partly drawn) [GS-447, 5-((3-(trans-3-(4-(6-cyclopropylpyridin-2-yl)-1H-pyrazol-1-yl)cyclobutyl)propyl)amino)-2-(2,6-dioxopiperidin-3-yl)isoindoline-1,3-dione], the IC50 in the assay on MV4;11 cells (setting [1]) was 0.01 to 0.1 µM; in the assay on MV4;11 cells (setting [2]), less than 0.01 µM; with MOLM-13 cells (setting [3]), 0.1 to 1 µM; in the assay with MOLM-13 cells (setting [4]) it was 0.01 to 0.1 µM.

On to `O=C1CCC(N2C(=O)c3ccc(NC[C@H]4C[C@H](n5cc(N6CCCCC6)c(C6CC6)n5)C4)cc3C2=O)C(=O)N1` (stereo partly drawn) [GS-448, 5-(((trans-3-(3-cyclopropyl-4-(piperidin-1-yl)-1H-pyrazol-1-yl)cyclobutyl)methyl)amino)-2-(2,6-dioxopiperidin-3-yl)isoindoline-1,3-dione], for which the IC50 is 0.1 to 1 µM in the assay on MV4;11 cells (setting [1]), 0.01 to 0.1 µM with MV4;11 cells (setting [2]), greater than 1 µM with MOLM-13 cells (setting [3]) and 0.1 to 1 µM in the assay on MOLM-13 cells (setting [4]).

As for `Cc1cccc(-c2cn([C@H]3C[C@H](CNc4ccc5c(c4)C(=O)N(C4CCC(=O)NC4=O)C5=O)C3)nc2C)n1` (stereo partly drawn) [GS-449, 2-(2,6-dioxopiperidin-3-yl)-5-(((trans-3-(3-methyl-4-(6-methylpyridin-2-yl)-1H-pyrazol-1-yl)cyclobutyl)methyl)amino)isoindoline-1,3-dione], the IC50 in the assay with MV4;11 cells (setting [1]), in the assay on MV4;11 cells (setting [2]), in the assay with MOLM-13 cells (setting [3]) and with MOLM-13 cells (setting [4]) was greater than 1 µM in each case.

`O=C1CCC(N2C(=O)c3ccc(NCCCCn4cc(-c5cnc6ccccc6n5)c(C5CC5)n4)cc3C2=O)C(=O)N1` (stereo not drawn) [GS-450, 5-((4-(3-cyclopropyl-4-(quinoxalin-2-yl)-1H-pyrazol-1-yl)butyl)amino)-2-(2,6-dioxopiperidin-3-yl)isoindoline-1,3-dione]: the IC50 in the assay with MV4;11 cells (setting [1]) lay in the range of 0.01 to 0.1 µM; in the assay on MV4;11 cells (setting [2]) it was 0.01 to 0.1 µM; in the assay with MOLM-13 cells (setting [3]) it was 0.1 to 1 µM; in the assay on MOLM-13 cells (setting [4]), 0.01 to 0.1 µM.

For the compound `O=C1CCC(N2C(=O)c3ccc(NCCC[C@H]4C[C@H](n5cc(-c6cccc(N7CCC7)n6)cn5)C4)cc3C2=O)C(=O)N1` (stereo partly drawn) [GS-451, 5-((3-(trans-3-(4-(6-(azetidin-1-yl)pyridin-2-yl)-1H-pyrazol-1-yl)cyclobutyl)propyl)amino)-2-(2,6-dioxopiperidin-3-yl)isoindoline-1,3-dione], the IC50 in the assay with MV4;11 cells (setting [1]) lay in the range of 0.01 to 0.1 µM; in the assay with MV4;11 cells (setting [2]), 0.01 to 0.1 µM; in the assay on MOLM-13 cells (setting [3]) it was 0.1 to 1 µM; with MOLM-13 cells (setting [4]) it was 0.01 to 0.1 µM.

On to `O=C1CCC(N2C(=O)c3ccc(NC[C@H]4C[C@H](n5cc(N6CCC(O)CC6)c(C6CC6)n5)C4)cc3C2=O)C(=O)N1` (stereo partly drawn) [GS-452, 5-(((trans-3-(3-cyclopropyl-4-(4-hydroxypiperidin-1-yl)-1H-pyrazol-1-yl)cyclobutyl)methyl)amino)-2-(2,6-dioxopiperidin-3-yl)isoindoline-1,3-dione], for which the IC50 in the assay with MV4;11 cells (setting [1]), in the assay with MV4;11 cells (setting [2]), in the assay with MOLM-13 cells (setting [3]) and with MOLM-13 cells (setting [4]) was greater than 1 µM throughout.

As for `CC(C)c1cccc(-c2cnn([C@H]3C[C@H](CCCNc4ccc5c(c4)C(=O)N(C4CCC(=O)NC4=O)C5=O)C3)c2)n1` (stereo partly drawn) [GS-453, 2-(2,6-dioxopiperidin-3-yl)-5-((3-(trans-3-(4-(6-isopropylpyridin-2-yl)-1H-pyrazol-1-yl)cyclobutyl)propyl)amino)isoindoline-1,3-dione], the IC50 with MV4;11 cells (setting [1]) was in the range of 0.01 to 0.1 µM; with MV4;11 cells (setting [2]), 0.01 to 0.1 µM; with MOLM-13 cells (setting [3]) it was 0.1 to 1 µM; with MOLM-13 cells (setting [4]), 0.01 to 0.1 µM.

Turning to `CN1CCC(Nc2cccc(-c3cn([C@H]4C[C@H](CNc5ccc6c(c5)C(=O)N(C5CCC(=O)NC5=O)C6=O)C4)nc3C3CC3)n2)CC1` (stereo partly drawn) [GS-454, 5-(((trans-3-(3-cyclopropyl-4-(6-((1-methylpiperidin-4-yl)amino)pyridin-2-yl)-1H-pyrazol-1-yl)cyclobutyl)methyl)amino)-2-(2,6-dioxopiperidin-3-yl)isoindoline-1,3-dione], the IC50 with MV4;11 cells (72 h, compound alone (without gilteritinib), 11 IC50) is greater than 1 µM; with MV4;11 cells (72 h, compound with gilteritinib 10 nM, 11 IC50 gilteritinib), 0.1 to 1 µM; with MOLM-13 cells (72 h, compound alone (without gilteritinib), read-out: MOLM-13 IC50) it was greater than 1 µM; in the assay with MOLM-13 cells (72 h, compound with gilteritinib 20 nM, read-out: MOLM-13 IC50 gilteritinib), 0.1 to 1 µM.

With `O=C1CCC(N2C(=O)c3ccc(NC[C@H]4C[C@H](n5cc(N6CCNCC6)c(C6CC6)n5)C4)cc3C2=O)C(=O)N1` (stereo partly drawn) [GS-455, 5-(((trans-3-(3-cyclopropyl-4-(piperazin-1-yl)-1H-pyrazol-1-yl)cyclobutyl)methyl)amino)-2-(2,6-dioxopiperidin-3-yl)isoindoline-1,3-dione], the IC50 in the assay with MV4;11 cells (setting [1]), in the assay on MV4;11 cells (setting [2]), in the assay with MOLM-13 cells (setting [3]) and with MOLM-13 cells (setting [4]) was greater than 1 µM each time.

As to `O=C1CCC(N2C(=O)c3ccc(NC[C@H]4C[C@H](n5cc(-c6ccc(Cl)cc6)c(C6CC6)n5)C4)cc3C2=O)C(=O)N1` (stereo partly drawn) [GS-456, 5-(((trans-3-(4-(4-chlorophenyl)-3-cyclopropyl-1H-pyrazol-1-yl)cyclobutyl)methyl)amino)-2-(2,6-dioxopiperidin-3-yl)isoindoline-1,3-dione], the IC50 with MV4;11 cells (setting [1]) was 0.1 to 1 µM; with MV4;11 cells (setting [2]), 0.01 to 0.1 µM; in the assay with MOLM-13 cells (setting [3]), greater than 1 µM; with MOLM-13 cells (setting [4]), 0.01 to 0.1 µM.

As to `O=C1CCC(N2C(=O)c3ccc(NC[C@H]4C[C@H](n5cc(-c6cccc(Cl)c6)c(C6CC6)n5)C4)cc3C2=O)C(=O)N1` (stereo partly drawn) [GS-457, 5-(((trans-3-(4-(3-chlorophenyl)-3-cyclopropyl-1H-pyrazol-1-yl)cyclobutyl)methyl)amino)-2-(2,6-dioxopiperidin-3-yl)isoindoline-1,3-dione], the IC50 lay within 0.01 to 0.1 µM with MV4;11 cells (setting [1]), 0.01 to 0.1 µM in the assay with MV4;11 cells (setting [2]), 0.1 to 1 µM in the assay on MOLM-13 cells (setting [3]) and 0.01 to 0.1 µM in the assay on MOLM-13 cells (setting [4]).

For `O=C1CCC(N2C(=O)c3ccc(NC[C@H]4C[C@H](n5cc(-c6ccccc6Cl)c(C6CC6)n5)C4)cc3C2=O)C(=O)N1` (stereo partly drawn) [GS-458, 5-(((trans-3-(4-(2-chlorophenyl)-3-cyclopropyl-1H-pyrazol-1-yl)cyclobutyl)methyl)amino)-2-(2,6-dioxopiperidin-3-yl)isoindoline-1,3-dione], the IC50 in the assay with MV4;11 cells (setting [1]) was 0.01 to 0.1 µM; with MV4;11 cells (setting [2]) it was less than 0.01 µM; with MOLM-13 cells (setting [3]), 0.01 to 0.1 µM; in the assay on MOLM-13 cells (setting [4]), less than 0.01 µM.

Turning to `CN1CCN(c2cn([C@H]3C[C@H](CNc4ccc5c(c4)C(=O)N(C4CCC(=O)NC4=O)C5=O)C3)nc2C2CC2)CC1` (stereo partly drawn) [GS-459, 5-(((trans-3-(3-cyclopropyl-4-(4-methylpiperazin-1-yl)-1H-pyrazol-1-yl)cyclobutyl)methyl)amino)-2-(2,6-dioxopiperidin-3-yl)isoindoline-1,3-dione], the IC50 in the assay on MV4;11 cells (setting [1]), in the assay on MV4;11 cells (setting [2]), in the assay on MOLM-13 cells (setting [3]) and in the assay on MOLM-13 cells (setting [4]) was greater than 1 µM each time.

Turning to `CN1CCC(c2cn([C@H]3C[C@H](CNc4ccc5c(c4)C(=O)N(C4CCC(=O)NC4=O)C5=O)C3)nc2C2CC2)CC1` (stereo partly drawn) [GS-460, 5-(((trans-3-(3-cyclopropyl-4-(1-methylpiperidin-4-yl)-1H-pyrazol-1-yl)cyclobutyl)methyl)amino)-2-(2,6-dioxopiperidin-3-yl)isoindoline-1,3-dione], the IC50 in the assay on MV4;11 cells (setting [1]), in the assay on MV4;11 cells (setting [2]), with MOLM-13 cells (setting [3]) and with MOLM-13 cells (setting [4]) was greater than 1 µM each time.

As for `O=C1CCC(N2C(=O)c3ccc(CNC4CC(n5cc(-c6cnc7ccccc7n6)c(C6CC6)n5)C4)cc3C2=O)C(=O)N1` (stereo not drawn) [GS-461, 5-(((3-(3-cyclopropyl-4-(quinoxalin-2-yl)-1H-pyrazol-1-yl)cyclobutyl)amino)methyl)-2-(2,6-dioxopiperidin-3-yl)isoindoline-1,3-dione], the IC50 in the assay on MV4;11 cells (setting [1]), in the assay on MV4;11 cells (setting [2]), with MOLM-13 cells (setting [3]) and in the assay on MOLM-13 cells (setting [4]) was greater than 1 µM in each case.
